Data taken from publication PMC9105976, “A Novel β-Hairpin Peptide Z-d14CFR Enhances Multidrug-Resistant Bacterial Clearance in a Murine Model of Mastitis” (International Journal of Molecular Sciences, 2022).
Marks after values point to notes of the source that are not given here. No end group written: not given here.

How the values were obtained:
[1] = test system: Bacillus cereus CAU 202020; experiment: MIC/MBC, microdilution broth method; type: cell-based; conditions: Bacillus cereus CAU 202020 (MDR isolate)
How it was run: (§1)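 Peptides were tested by microdilution against a 1 × 10^6 CFU/mL suspension in 10 mM PBS, each agent added at an equal volume within 0.001–2 mg/mL; ampicillin and gentamicin served as comparators.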

[2] = test system: Escherichia coli ATCC25922; experiment: MIC/MBC, microdilution broth method; type: cell-based; conditions: Escherichia coli ATCC25922
How it was run: as §1

[3] = test system: Escherichia coli CAU 201919; experiment: MIC/MBC, microdilution broth method; type: cell-based; conditions: Escherichia coli CAU 201919 (MDR isolate)
How it was run: as §1

[4] = test system: Escherichia coli CAU 201920; experiment: MIC/MBC, microdilution broth method; type: cell-based; conditions: Escherichia coli CAU 201920 (MDR isolate)
How it was run: as §1

[5] = test system: Escherichia coli CVCC1450; experiment: MIC/MBC, microdilution broth method; type: cell-based; conditions: Escherichia coli CVCC1450
How it was run: as §1

[6] = test system: Klebsiella pneumoniae CAU202084; experiment: MIC/MBC, microdilution broth method; type: cell-based; conditions: Klebsiella pneumoniae CAU202084 (MDR isolate)
How it was run: as §1

[7] = test system: Proteus vulgaris CVCC1971; experiment: MIC/MBC, microdilution broth method; type: cell-based; conditions: Proteus vulgaris CVCC1971
How it was run: as §1

[8] = test system: Salmonella typhimurium ATCC14028; experiment: MIC/MBC, microdilution broth method; type: cell-based; conditions: Salmonella typhimurium ATCC14028
How it was run: as §1

[9] = test system: Staphylococcus aureus ATCC29213; experiment: MIC/MBC, microdilution broth method; type: cell-based; conditions: Staphylococcus aureus ATCC29213
How it was run: as §1

[10] = test system: Staphylococcus haemolyticus CAU202078; experiment: MIC/MBC, microdilution broth method; type: cell-based; conditions: Staphylococcus haemolyticus CAU202078 (MDR isolate)
How it was run: as §1

[11] = test system: Streptococcus suis CVCC3307; experiment: MIC/MBC, microdilution broth method; type: cell-based; conditions: Streptococcus suis CVCC3307
How it was run: as §1

MRSA ATCC33591 = experiment: MIC/MBC, microdilution broth method; type: cell-based, S. aureus
How it was run: as §1

[12] = test system: Gram-positive and Gram-negative bacteria; experiment: Antimicrobial activity, statements over the bacterial panel; type: cell-based; conditions: data not shown
Experimental: The MIC of peptides against bacteria was carried out by the microdilution broth method. The bacterial culture (OD 600 = 0.6) was diluted in 10 mM PBS to 1 × 10^6 CFU/mL. […]

[13] = Retention time of peptide in HPLC (hydrophobicity); type: physicochemical; conditions: used as measure of hydrophobicity (order Z-d14CR > Z-d14CF > Z-d13 > Z-d14CFR > Z-d14C); column and gradient not given
[14] = 1 × 10^6 CFU/mL, 18 h at 37 °C, NA = no antimicrobial activity at 1 mg/mL
[15] = kills 99.9% bacteria, NA = no activity at 1 mg/mL
[16] = minimum concentration which kills 99.9% bacteria, NA = no activity at 1 mg/mL

## GGYCNSKSVCVCR-NH2 (disulfide (positions not given here)) [Z-d13, Z. atratus defensin β-sheet region analogue, …-NH2]
[1]; [14]
  MIC: NA (NA) (No antimicrobial activity at 1 mg/mL)
[1]; [15]
  MBC: NA (NA) (No antimicrobial activity at 1 mg/mL)
[2]; [14]
  MIC: NA (NA) ^c (No antimicrobial activity at 1 mg/mL)
[2]; [16]
  MBC: NA (NA) ^c (No antimicrobial activity at 1 mg/mL)
[3]; [14]
  MIC: NA (NA) (No antimicrobial activity at 1 mg/mL)
[3]; [15]
  MBC: NA (NA) (No antimicrobial activity at 1 mg/mL)
[4]; [14]
  MIC: NA (NA) (No antimicrobial activity at 1 mg/mL)
[4]; [15]
  MBC: NA (NA) (No antimicrobial activity at 1 mg/mL)
[5]; [14]
  MIC: NA (NA) (No antimicrobial activity at 1 mg/mL)
[5]; [16]
  MBC: NA (NA) (No antimicrobial activity at 1 mg/mL)
[6]; [14]
  MIC: NA (NA) (No antimicrobial activity at 1 mg/mL)
[6]; [15]
  MBC: NA (NA) (No antimicrobial activity at 1 mg/mL)
[7]; [14]
  MIC: NA (NA) (No antimicrobial activity at 1 mg/mL)
[7]; [15]
  MBC: NA (NA) (No antimicrobial activity at 1 mg/mL)
[8]; [14]
  MIC: NA (NA) (No antimicrobial activity at 1 mg/mL)
[8]; [15]
  MBC: NA (NA) (No antimicrobial activity at 1 mg/mL)
[9]; [14]
  MIC: NA (NA) (No antimicrobial activity at 1 mg/mL)
[9]; [15]
  MBC: NA (NA) (No antimicrobial activity at 1 mg/mL)
[10]; [14]
  MIC: NA (NA) (No antimicrobial activity at 1 mg/mL)
[10]; [15]
  MBC: NA (NA) (No antimicrobial activity at 1 mg/mL)
[11]; [14]
  MIC: NA (NA) (No antimicrobial activity at 1 mg/mL)
[11]; [15]
  MBC: NA (NA) (No antimicrobial activity at 1 mg/mL)
MRSA ATCC33591; MRSA (methicillin-resistant S. aureus) ATCC33591, 1 × 10^6 CFU/mL, 18 h at 37 °C, NA = no antimicrobial activity at 1 mg/mL
  MIC: NA (NA) (No antimicrobial activity at 1 mg/mL)
MRSA ATCC33591; MRSA ATCC33591, kills 99.9% bacteria, NA = no activity at 1 mg/mL
  MBC: NA (NA) (No antimicrobial activity at 1 mg/mL)
[12]
  activity against bacteria at 3 mg/mL: slight activity
[13]
  RT, retention time of peptide in HPLC: 9.077 min
